# Measured values taken from US4610981A, “N-[(1H-imidazol-1-yl) and (1H-1,2,4-triazol-1-yl)-alkyl]benzenesulfonamides and thromboxane synthetase/antihypertensive compositions” (priority 1985, dated 1986).
# Where a name gives a salt, the structure may show the parent alone. Read-outs that look alike come from different tables or passages of the source.
# Legend:
# [1] = target: T1, thromboxane synthetase (Rattus norvegicus, UniProt P49430); assay: Inhibition of thromboxane (TXA2) formation in SHR platelets, TXB2 measured by radioimmunoassay; type: cell-based, Okamoto-Aoki spontaneously hypertensive rats (SHR); settings: read-out: % Inhibition (of TXB2 formation)
# T1 construct: The platelets were isolated by centrifuging the PRP for 10 minutes; endogenous in cells; host or cells: washed platelets from arterial blood of Okamoto-Aoki spontaneously hypertensive rats (animals from Taconic Farms)
# T1 sequence (P49430 1-533): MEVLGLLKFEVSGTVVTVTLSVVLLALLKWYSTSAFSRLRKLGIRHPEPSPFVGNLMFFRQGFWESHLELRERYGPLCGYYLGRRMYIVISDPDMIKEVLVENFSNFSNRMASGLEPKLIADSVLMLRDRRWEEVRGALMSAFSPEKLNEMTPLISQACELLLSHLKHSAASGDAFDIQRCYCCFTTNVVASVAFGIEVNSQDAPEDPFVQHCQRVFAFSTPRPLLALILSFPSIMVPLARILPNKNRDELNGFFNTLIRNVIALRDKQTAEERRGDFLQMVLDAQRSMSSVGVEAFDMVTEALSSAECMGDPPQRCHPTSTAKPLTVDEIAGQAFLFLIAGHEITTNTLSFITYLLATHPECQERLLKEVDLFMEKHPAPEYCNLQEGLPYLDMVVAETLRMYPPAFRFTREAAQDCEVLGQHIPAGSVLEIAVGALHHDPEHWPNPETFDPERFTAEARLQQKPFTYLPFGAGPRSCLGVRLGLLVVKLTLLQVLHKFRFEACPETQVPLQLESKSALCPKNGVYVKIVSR
# Experimental: The inhibition of thromboxane (TXA2) formation was studied by determining the concentration of thromboxane B2 (TXB2), the stable hydrolysis product of TXA2. […] The blood was diluted with 3 ml cold saline and centrifuged at room temperature for 15 minutes at 460×g. The platelet rich plasma (PRP) was separated. The platelets were isolated by centrifuging the PRP for 10 minutes at 1060×g and were washed in 4 ml cold oxygenated Krebs phosphate buffer, pH 7.4. The chilled platelets recovered from centrifuging at 800×g for 10 minutes were resuspended in oxygenated Krebs phosphate buffer and diluted to contain 4.5-6.0×10^4 platelets/μl. Assay samples, prepared on ice, contained 200 μl platelet suspension, 50 μl saline, and 50 μl vehicle or drug under study. The samples were incubated for 10 minutes at 37° C. in a metabolic shaker. The reaction was terminated by immersing the tubes in an ice bath and adding 50 μl of 0.5M citric acid. The samples were centrifuged for 10 minutes in a refrigerated centrifuge and the supernatants thus obtained were decanted and stored at -20° C.
# [2] = Hypotensive activity in spontaneously hypertensive rats, mean arterial blood pressure (Chan and Poorvin); type: in vivo, spontaneously hypertensive rats of the Okamoto strain; settings: oral gavage, 100 mg/kg or less, two doses 24 hours apart, measured 28 hours after initial dose; average MABP of rats used 160±1.5 mm Hg
# Experimental: The novel compounds of the present invention also are active antihypertensive agents and were tested for hypotensive activity by the method of P. S. Chan and D. Poorvin, Clinical and Experimental Hypertension, 1(6), 817-830 (1979). Male, 16 week old, spontaneously hypertensive rats of the Okamoto strain, from Taconic Farms, Germantown, N.Y., having an average mean arterial blood pressure of 160±1.5 mm of mercury are used in the test. One to three rats are used per test compound. A rat is dosed by gavage with a test compound, suspended in 2% pre-boiled starch at a concentration of 50 mg/ml, at a dose of 100 mg/kg of body weight or less, with 0.9% sodium chloride loading at a dose of 25 ml/kg of body weight. A second identical dose of the test compound, without sodium chloride loading, is given 24 hours later. At 28 hours after the initial dose the mean arterial blood pressure is measured by the method of Chan and Poorvin, vide supra. The procedure is repeated in a second and third rat when necessary.
# [3] = guinea pigs; literature; cited from earlier work
# [4] = rabbits; literature; cited from earlier work
# [5] = canines; J. Cardiovascular Pharmacology, 4, 129 (1982); cited from earlier work
# [6] = dose 10^-4 M, SHR washed platelets, 10 minutes at 37° C.
"inhibition at 100 µM [1, 6] [%]",Structure (SMILES),MABP in mm Hg [2] [mm Hg],also measured
94,O=S(=O)(NCCCCn1ccnc1)c1ccc(Cl)cc1 [4-Chloro-N-[4-(1H-imidazol-1-yl)butyl]benzenesulfonamide],,
100,CC(=O)Nc1ccc(S(=O)(=O)NCCCCn2ccnc2)cc1 [N-[4-[[[4-(1H-imidazol-1-yl)butyl]amino]sulfonyl]phenyl]acetamide],116,
,"O=S(=O)(NCCCn1cncn1)c1ccc(Cl)cc1 [4-Chloro-N-[3-(1H-1,2,4-triazol-1-yl)propyl]benzenesulfonamide]",127,
,O=S(=O)(NCCCCCn1ccnc1)c1ccc(Cl)cc1 [4-Chloro-N-[5-(1H-imidazol-1-yl)pentyl]benzenesulfonamide],119,
100,COc1ccc(S(=O)(=O)NCCCn2ccnc2)cc1 [N-[3-(1H-Imidazol-1-yl)propyl]-4-methoxybenzenesulfonamide],,
,CCCCCC(O)/C=C/C1OC2CC(O2)C1C/C=C\CCCC(=O)O (centres unmarked) [TXA2],,effect of injection into coronary arteries (in words) [3]: causes myocardial ischemia and subendocardial necrosis; effect of injection into coronary arteries (in words) [4]: causes myocardial ischemia and subendocardial necrosis
,O=S(=O)(NCCCn1ccnc1)c1ccc(Br)cc1 [4-Bromo-N-[3-(1H-imidazol-1-yl)propyl]benzenesulfonamide],126,inhibition at 100 µM [1]: 100%
99,O=S(=O)(NCCCn1ccnc1)c1ccc(Cl)cc1 [4-Chloro-N-[3-(1H-imidazol-1-yl)propyl]benzenesulfonamide],120,
97,O=S(=O)(NCCCCCn1ccnc1)c1ccc(Cl)cc1 [4-Chloro-N-[5-(1H-imidazol-1-yl)pentyl]benzenesulfonamide hydrochloride],,
67,"O=S(=O)(NCCCn1cncn1)c1ccccc1 [N-[3-(1H-1,2,4-Triazol-1-yl)propyl]benzenesulfonamide]",,
90,O=S(=O)(NCCc1cccnc1)c1ccc(Cl)cc1 [4-Chloro-N-[2-(3-pyridyl)ethyl]benzenesulfonamide],109,
73,CC(=O)Nc1ccc(S(=O)(=O)NCCCn2ccnc2)cc1 [N-[4-[[[3-(1H-Imidazol-1-yl)propyl]amino]sulfonyl]phenyl]acetamide],131,
97,COc1ccc(S(=O)(=O)NCCCCn2ccnc2)cc1 [N-[4-(1H-imidazol-1-yl)butyl]-4-methoxybenzenesulfonamide],134,
,CCCCC[C@H](O)/C=C/[C@@H]1[C@H]2C/C(=C/CCCC(=O)O)O[C@H]2C[C@H]1O [PGI2],,effect on ischemic myocardium (in words) [5]: beneficial effects
93,O=S(=O)(NCCCCCCCCn1ccnc1)c1ccc(Cl)cc1 [4-Chloro-N-[8-(1H-imidazol-1-yl)octyl]benzenesulfonamide],132,
93,O=S(=O)(NCCCCn1ccnc1)c1ccccc1 [N-[4-(1H-Imidazol-1-yl)butyl]benzenesulfonamide],,
91,O=S(=O)(NCCCCn1ccnc1)c1ccc(Br)cc1 [4-Bromo-N-[4-(1H-imidazol-1-yl)butyl]benzenesulfonamide],,
,O=S(=O)(NCCn1ccnc1)c1ccc(Br)cc1 [4-Bromo-N-[2-(1H-imidazol-1-yl)ethyl]benzenesulfonamide],125,
